{"source": "patent US20040019092A1", "about": "“Non-peptide somatostatin receptor ligands” (priority 2001, published 2004)", "key": {"GH secretion [1]": {"test_system": "GH secretion", "assay": "GH secretion in vivo, rat, subcutaneous application, 1 h (basal)", "settings": "rat, basal GH secretion, 1 h after subcutaneous application", "procedure": "(§1) Animals, anesthesia: Male rats of a Sprague Dawley strain (Ico:OFA-SD, Iffa-Credo, F-Lyon) of 200-300 g body weight were used. They were kept under standardized conditions and were anesthetized with pentobarbital-sodium (Siegfried, CH Zofingen), 60 mg/kg i.p. for subcutaneous and intraduodenal applications. Animals designed for an infusion experiment were anesthetized with urethane (Siegfried, CH Zofingen), 1.2 g/kg i.p.\n(§2) Compounds: The compounds were dissolved, optionally with the aid of one or more of the following adjuncts:\n(§3) Stock solutions of the compounds were prepared in water with the addition of the necessary adjunct(s). Further dilutions were prepared allowing 5 mL/kg for subcutaneous application, 2 mL for intraduodenal (i.d.) application or 4.5 mL/kg for intravenous infusion. The solutions for the intravenous application/infusion were made isotonic by addition of glucose to a final concentration of 5%.\n(§4) Applications were made, or, in the case of infusion, started, approximately 10 minutes after induction of anesthesia. No further treatment followed subcutaneous or intraduodenal application. Ten, twenty-five and fifty-five minutes after start of the intravenous infusion the GH secretion was stimulated with repeated intravenous injections of the potent GHRH analog, D-Ala2 GHRH1-29NH2, 1 μg/kg.\n(§5) One hour after subcutaneous or intraduodenal application of the compounds, blood was collected from the trunk after decapitation. In the case of application by infusion, 5 minutes after each application of GHRH, a blood sample of 0.8 mL was taken from a V. jugularis and mixed with EDTA (Eppendorf tubes TOM14, Milian, CH Geneva). The blood samples were kept on ice and spun in a cooled centrifuge. The serum or plasma was separated and frozen.\n(§6) Statistics: In each experiment, 4-5 animals were used per dose, with 6 to 8 animals as the control group that received the vehicle. The GH serum/plasma levels were averaged, the mean of the treated groups expressed in percent of the control group and the ID50-value for the inhibition of the secretion was determined graphically (log-probit) for each experiment. In most experiments with enteral (intraduodenal) application only 1 dose, 10 mg/kg, was given. […] Only inhibitions between 20 and 80% were considered reliable.\n(§7) Two to four experiments were performed. In the case of proper dose response curves, allowing the determination of an ID50 values were averaged logarithmically. In the cases of single dose-experiments, the GH value in percent of control were averaged logarithmically and the ID50 for this value was taken from the table. ID50 values determined at the different time points during the infusion were averaged and this value was included in the tables."}, "GH secretion [2]": {"test_system": "GH secretion", "assay": "GH secretion in vivo, rat, intraduodenal (enteral) application, 1 h (basal)", "settings": "for GH vivo i.d. 1 h ID50: basal GH secretion, 1 h after intraduodenal application, mostly approximate ID50 from single 10 mg/kg dose, Ø = no effect at this dose, > = extrapolated value; for enteral ID50 (GH secretion): enteral (intraduodenal) application", "procedure": "as §1, §2, §3, §4, §5, §6, §7"}, "[3]": {"test_system": "GHRH stimulated GH secretion", "assay": "GH secretion in vivo, rat, intravenous infusion with repeated GHRH stimulation", "settings": "for INFUS. + GHRH ID50 MEAN: Table 4, mean of infusion time points; for INFUS. + GHRH ID50 15′ / INFUS. + GHRH ID50 30′ / INFUS. + GHRH ID50 60′: Table 4, urethan; for INFUS. + GHRH ID50 15′: 15′ of infusion; for INFUS. + GHRH ID50 30′: 30′ of infusion; for INFUS. + GHRH ID50 60′: 60′ of infusion; for GH vivo Inf + GHRH ID50 (mean of time points): urethane, i.v. infusion, GHRH stimulated", "procedure": "as §1, §3, §4, §5, §6, §7"}, "[4]": {"test_system": "GHRH stimulated GH secretion", "assay": "GH secretion, rat in urethan anesthesia, subcutaneous + repeated GHRH stimulation", "type": "in vivo", "procedure": "as §4\n(§8) With most of these selected compounds additional in vivo experiments in other models (intraduodenal application followed by repeated stimulation of the GH secretion by GHRH, oral application by gavage of unanesthetized, estradiol primed rats) were performed. Table 4 summarizes data obtained for the inhibition of the stimulated GH secretion after subcutaneous, intraduodenal and intravenous application and the inhibitory effects obtained for different time points during intravenous infusion of selected hydantoins."}, "[5]": {"test_system": "GHRH stimulated GH secretion", "assay": "GH secretion, rat in urethan anesthesia, intraduodenal + repeated GHRH stimulation", "type": "in vivo", "source_text": "as §8, with “No further treatment followed subcutaneous or intraduodenal application. […] This value has been determined in a total of four independent experiments. […] However, in further studies compound 47 has also been tested by the enteral route of administration after repeated stimulation of the GH secretion by GHRH. […] With” for “With”, “hydantoins. […] [table]” for “hydantoins.”"}, "[6]": {"test_system": "GHRH stimulated GH secretion", "assay": "GH secretion, rat in urethan anesthesia, i.v. single injection + repeated GHRH stimulation", "type": "in vivo"}, "GH secretion [7]": {"test_system": "GH secretion", "assay": "Unanesthetized estradiol primed male rats, oral by gavage: GH", "type": "in vivo, rat", "procedure": "The inhibitory effect of the compounds on GH release may also be examined after oral application to male rats with oestradiol implants. This test is carried out as follows.\nA loop (length 50 mmØ3 mm) of silastic with 50 mg of oestradiol is implanted under the dorsal skin of anaesthetized male OFA rats that have a weight of ca. 300 g. At various times (1 to 6 months later), these animals, in a fasted state, are used repeatedly for tests. The test substances are active in this test at doses from 0.1 to 5 mg/kg, when GH level in the blood serum is determined by radio-immunoassay 1 and 2 hours after oral administration.\n(§9) Table 5 summarizes the results obtained in the estradiol primed male rats that received the compounds orally by gavage. These rats have stabilized elevated GH plasma levels as well as increased prolactin levels. In contrast to normal untreated rats, who's prolactin secretion is not sensitive to the inhibitory effect of somatostain, in these rats the prolactin secretion is inhibited to a similar degree as the GH secretion. Therefore, the inhibitory effect can be measured on 2 different parameters, GH and prolactin. The mean enteral absorption and activity of the respective compounds are shown."}, "prolactin secretion": {"test_system": "prolactin secretion", "assay": "Unanesthetized estradiol primed male rats, oral by gavage: prolactin", "type": "in vivo, rat", "source_text": "as §9"}, "[8]": {"target": "T1, human sst2 receptor sub-type (Homo sapiens, UniProt P30874)", "T1 construct": "host or cells: SRIF receptor expressing cell cultures (general statement only)", "T1 sequence (P30874 whole entry)": "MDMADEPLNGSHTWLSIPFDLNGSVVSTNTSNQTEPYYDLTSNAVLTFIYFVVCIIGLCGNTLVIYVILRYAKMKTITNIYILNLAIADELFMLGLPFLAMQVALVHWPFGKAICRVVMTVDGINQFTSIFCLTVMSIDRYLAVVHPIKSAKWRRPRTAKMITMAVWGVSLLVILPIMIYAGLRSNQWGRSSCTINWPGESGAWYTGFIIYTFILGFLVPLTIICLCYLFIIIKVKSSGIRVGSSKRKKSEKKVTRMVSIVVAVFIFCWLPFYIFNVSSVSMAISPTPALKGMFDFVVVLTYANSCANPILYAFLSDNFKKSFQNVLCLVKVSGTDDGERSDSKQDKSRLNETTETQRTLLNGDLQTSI", "assay": "In vitro binding, human sst2 receptor sub-type (SSTR2)", "settings": "Tables 8/9: Bind SSTR2 nM", "procedure": "The in vitro binding affinities for rat cortex SRIF receptors and the human sst2 receptor sub-type was assessed. Further the in vitro inhibition of the GHRH induced GH secretion in primary cultures of rat pituitary cells as well as the in vivo inhibition of GH secretion in the rat after systemic or enteral application was studied. […] Therefore, the in vivo activities of the compounds in rats with respect to inhibition of growth hormone release was also assessed. Most compounds selected were tested by enteral—intraduodenal (i.d.) application. For determination of the absolute activity and for the calculation of an enteral bioavailability, single subcutaneous (s.c.) application of intravenous (i.v.) infusion was used."}, "[9]": {"settings": "estradiol implant male rats, oral by gavage, 1 hour"}}, "data": [{"smiles": "Cc1cccc2c(CC3C(=O)N(CCCCCN)C(=O)N3S(=O)(=O)c3ccc(Oc4ccc(O)c(Cl)c4)c(C(=O)N(C)C)c3)c[nH]c12", "note": "(racemic) [(+/−)-43]", "values": [{"measurement": "GH vivo s.c. 1 h ID50", "setting": "GH secretion [1]", "value": 0.00379, "unit": "mg/kg"}, {"measurement": "GH vivo i.d. 1 h ID50", "setting": "GH secretion [2]", "value": 3.417, "unit": "mg/kg"}, {"measurement": "enteral ID50 (GH secretion)", "setting": "GH secretion [2]", "value": 3.4, "unit": "mg/kg"}, {"measurement": "inhibition at 10 mg/kg", "setting": "GH secretion [2]; intraduodenal, enteral administration of 10 mg/kg", "value": 68, "unit": "%"}, {"measurement": "INFUS. + GHRH ID50 MEAN", "setting": "[3]", "value": 0.00372, "unit": "mg/kg"}, {"measurement": "INFUS. + GHRH ID50 15′", "setting": "[3]", "value": 0.00644, "unit": "mg/kg"}, {"measurement": "INFUS. + GHRH ID50 30′", "setting": "[3]", "value": 0.00358, "unit": "mg/kg"}, {"measurement": "INFUS. + GHRH ID50 60′", "setting": "[3]", "value": 0.00224, "unit": "mg/kg"}, {"measurement": "GH vivo Inf + GHRH ID50 (mean of time points)", "setting": "[3]", "value": 3.72, "unit": "µg/kg/h"}, {"measurement": "SUBCUTANEOUS + GHRH ID50 15′", "setting": "[4]; 15′", "value": 0.00705, "unit": "mg/kg"}, {"measurement": "SUBCUTANEOUS + GHRH ID50 30′", "setting": "[4]; 30′", "value": 0.00795, "unit": "mg/kg"}, {"measurement": "SUBCUTANEOUS + GHRH ID50 60′", "setting": "[4]; 60′", "value": 0.01135, "unit": "mg/kg"}, {"measurement": "SUBCUTANEOUS + GHRH ID50 120′", "setting": "[4]; 120′", "value": 0.01569, "unit": "mg/kg"}, {"measurement": "INTRADUODENAL + GHRH ID50 15′", "setting": "[5]; urethan, 15′, ø = no effect at this dose", "value": 1.165, "unit": "mg/kg"}, {"measurement": "INTRADUODENAL + GHRH ID50 30′", "setting": "[5]; urethan, 30′", "value": 1.646, "unit": "mg/kg"}, {"measurement": "INTRADUODENAL + GHRH ID50 60′", "setting": "[5]; urethan, 60′", "value": 1.419, "unit": "mg/kg"}, {"measurement": "INTRADUODENAL + GHRH ID50 120′", "setting": "[5]; urethan, 120′, ø = no effect at this dose", "value": 2.872, "unit": "mg/kg"}, {"measurement": "I.V. SINGLE INJECTION + GHRH ID50 15′", "setting": "[6]; 15′", "value": 0.0125, "unit": "mg/kg"}, {"measurement": "I.V. SINGLE INJECTION + GHRH ID50 30′", "setting": "[6]; 30′", "value": 0.0312, "unit": "mg/kg"}, {"measurement": "I.V. SINGLE INJECTION + GHRH ID50 60′", "setting": "[6]; 60′", "value": 0.055, "unit": "mg/kg"}, {"measurement": "I.V. SINGLE INJECTION + GHRH ID50 120′", "setting": "[6]; 120′", "value": 0.1241, "unit": "mg/kg"}, {"measurement": "GH 1 H ID50", "setting": "GH secretion [7]; [9]", "value": 3, "unit": "mg/kg"}, {"measurement": "MEAN ID50 (GH and prolactin)", "setting": "GH secretion [7]; [9]", "value": 2.324, "unit": "mg/kg"}, {"measurement": "oral ID50 (GH)", "setting": "GH secretion [7]; estradiol primed male rats", "value": 3, "unit": "mg/kg"}, {"measurement": "PROLACT 1 H ID50", "setting": "prolactin secretion; estradiol implant male rats, oral by gavage, 1 hour, ø = no effect at this dose", "value": 1.8, "unit": "mg/kg"}, {"measurement": "oral ID50 (prolactin)", "setting": "prolactin secretion; estradiol primed male rats", "value": 1.8, "unit": "mg/kg"}]}, {"smiles": "C[C@H](N)C(=O)NCC(=O)N[C@H]1CSSC[C@@H](C(=O)O)NC(=O)[C@H](CO)NC(=O)[C@H]([C@@H](C)O)NC(=O)[C@H](Cc2ccccc2)NC(=O)[C@H]([C@@H](C)O)NC(=O)[C@H](CCCCN)NC(=O)[C@H](Cc2c[nH]c3ccccc23)NC(=O)[C@H](Cc2ccccc2)NC(=O)[C@H](Cc2ccccc2)NC(=O)[C@H](CC(N)=O)NC(=O)[C@H](CCCCN)NC1=O", "note": "[SRIF14, somatostatin 14, reference compound]", "values": [{"measurement": "INFUS. + GHRH ID50 MEAN", "setting": "[3]", "value": 0.0039, "unit": "mg/kg"}, {"measurement": "INFUS. + GHRH ID50 15′", "setting": "[3]", "value": 0.006, "unit": "mg/kg"}, {"measurement": "INFUS. + GHRH ID50 30′", "setting": "[3]", "value": 0.00335, "unit": "mg/kg"}, {"measurement": "INFUS. + GHRH ID50 60′", "setting": "[3]", "value": 0.0029, "unit": "mg/kg"}]}, {"smiles": "Cc1cccc2c(CC3C(=O)N(CCCCC(C)(C)N)C(=O)N3S(=O)(=O)c3ccc(Oc4ccc(O)c(Cl)c4)c(C(=O)N(C)C)c3)c[nH]c12", "note": "(centres unmarked) [Compound 47]", "values": [{"measurement": "IC50", "setting": "[8]", "value": 380, "unit": "pM"}, {"measurement": "GH vivo s.c. 1 h ID50", "setting": "GH secretion [1]", "value": 0.01, "unit": "mg/kg"}, {"measurement": "GH vivo i.d. 1 h ID50", "setting": "GH secretion [2]", "value": "˜454 μg/kg"}, {"measurement": "enteral ID50 (GH secretion)", "setting": "GH secretion [2]", "value": 0.5, "unit": "mg/kg"}, {"measurement": "enteral bioavailability (from ID50 ratio)", "setting": "GH secretion [2]; intraduodenal 1 hour vs parenteral ID50", "value": 1.8, "unit": "%"}, {"measurement": "GH vivo Inf + GHRH ID50 (mean of time points)", "setting": "[3]", "value": 8.10, "unit": "µg/kg/h"}, {"measurement": "bioavailability calculated in the GHRH stimulated enteral model", "setting": "[5]", "value": 0.3, "unit": "%"}, {"measurement": "enteral ID50 after repeated stimulation of the GH secretion by GHRH", "setting": "[5]; 1 hour", "value": "~2.6", "unit": "mg/kg"}]}]}
